# Test results from paper PMC5286421, “Interactions of retinoids with the ABC transporters P-glycoprotein and Breast Cancer Resistance Protein” (Scientific Reports, 2017).
# Where two headings read alike, the source gives them in different places.
# What was measured:
# [1] = biological target: T1, Pgp (Homo sapiens, UniProt P08183); conditions: for IC50 values, Pgp stimulated (verapamil-stimulated) ATPase activity: 40 μM verapamil; for IC50 values, Pgp stimulated (verapamil-stimulated) ATPase activity / IC50 values, Pgp basal ATPase activity: Sf9 membranes, mean ± SEM, n=3; for IC50 values, Pgp basal ATPase activity: 10 min pre-incubation 37 °C, 3 mM ATP/Mg2+ 25 min; for Change of apparent KM of verapamil-stimulated Pgp ATPase activity / Change of vmax of verapamil-stimulated Pgp ATPase activity: Figs 5 and 6; for Type of inhibition of the verapamil-stimulated ATPase activity of Pgp: modified Michaelis-Menten fit at different verapamil concentrations
# T1 sequence (P08183 whole entry): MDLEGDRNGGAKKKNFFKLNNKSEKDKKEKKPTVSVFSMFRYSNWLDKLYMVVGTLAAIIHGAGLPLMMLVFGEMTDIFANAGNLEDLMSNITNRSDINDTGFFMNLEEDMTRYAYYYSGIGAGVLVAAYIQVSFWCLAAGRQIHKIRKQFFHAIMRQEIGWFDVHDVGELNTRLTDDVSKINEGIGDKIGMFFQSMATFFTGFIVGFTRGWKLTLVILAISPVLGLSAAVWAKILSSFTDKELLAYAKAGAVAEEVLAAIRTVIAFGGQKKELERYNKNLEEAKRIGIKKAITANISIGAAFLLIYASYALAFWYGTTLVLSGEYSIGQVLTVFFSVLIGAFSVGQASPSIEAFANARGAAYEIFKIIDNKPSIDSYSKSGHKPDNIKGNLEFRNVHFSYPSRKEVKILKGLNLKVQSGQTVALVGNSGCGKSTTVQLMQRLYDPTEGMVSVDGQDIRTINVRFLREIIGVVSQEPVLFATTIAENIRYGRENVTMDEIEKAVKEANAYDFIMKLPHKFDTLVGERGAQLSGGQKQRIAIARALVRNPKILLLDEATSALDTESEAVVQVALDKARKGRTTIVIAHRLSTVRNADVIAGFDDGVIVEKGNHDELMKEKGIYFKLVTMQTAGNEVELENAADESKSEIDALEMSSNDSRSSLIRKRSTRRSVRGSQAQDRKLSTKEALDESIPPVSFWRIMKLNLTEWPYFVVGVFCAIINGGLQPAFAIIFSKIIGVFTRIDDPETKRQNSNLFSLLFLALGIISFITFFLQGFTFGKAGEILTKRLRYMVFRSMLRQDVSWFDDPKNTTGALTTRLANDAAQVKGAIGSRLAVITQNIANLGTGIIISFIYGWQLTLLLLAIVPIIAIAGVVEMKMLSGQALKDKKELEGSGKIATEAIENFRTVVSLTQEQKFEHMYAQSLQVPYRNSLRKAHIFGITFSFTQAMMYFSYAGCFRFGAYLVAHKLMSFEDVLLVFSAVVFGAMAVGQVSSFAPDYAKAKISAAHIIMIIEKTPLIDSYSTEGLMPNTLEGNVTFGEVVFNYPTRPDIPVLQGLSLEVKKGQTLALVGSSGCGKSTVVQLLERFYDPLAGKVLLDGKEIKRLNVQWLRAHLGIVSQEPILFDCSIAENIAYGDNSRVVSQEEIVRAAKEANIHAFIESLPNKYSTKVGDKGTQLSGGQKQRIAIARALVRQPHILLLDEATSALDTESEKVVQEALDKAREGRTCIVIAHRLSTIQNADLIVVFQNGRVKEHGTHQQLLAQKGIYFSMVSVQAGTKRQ
# Experimental: (§1) For ATPase activity measurements we used membrane samples derived from Sf9 (Spodoptera frugiperda) insect ovarian cells expressing human Pgp or ABCG2. cDNAs of the transporters were cloned into recombinant baculovirus transfer vectors, the Sf9 insect ovarian cells were cultured, and infected with the baculoviruses as described in ref. [52]. Sf9 cells overexpressing human Pgp and ABCG2 were harvested and cell membranes were isolated. The protein concentration of the membrane samples were determined by the Lowry method[53]. The ABCG2 expressing Sf9 membrane samples were loaded with cholesterol by cholesterol-methyl-beta-cyclodextrine complex in order to obtain high specific ATPase activity of the transporter[54]. Membrane samples were stored at −80 °C. The transporter expression of the membrane samples (5 μg membrane protein/slot) was routinely checked by immunoblot using the G-1 mAb (for Pgp) or BXP-21 mAb (for ABCG2) and a goat anti-mouse HRP-conjugated IgG secondary antibody. Both primary and secondary antibodies were from Santa Cruz Biotechnology Inc. (CA, USA) and applied at 1:5,000 dilution.
# (§2) The vanadate-sensitive ATPase activity of Pgp and ABCG2 was determined by a colorimetric assay described in refs [32],[55]. Specific ATPase activity of the transporters was calculated from the amount of released inorganic phosphate. […] The absorbance of the samples was measured at 700 nm using a BioTek Synergy HT plate reader (BioTek Instruments, Winooski, USA).
# [2] = biological target: T2, ABCG2 (Homo sapiens, UniProt Q9UNQ0); assay: Vanadate-sensitive ATPase activity of ABCG2 in Sf9 membrane preparations; assay type: biochemical; conditions: for IC50 values, ABCG2 stimulated (quercetin-stimulated) ATPase activity / IC50 values, ABCG2 basal ATPase activity / IC50: cholesterol-loaded Sf9 membranes, mean ± SEM, n=3; for Change of apparent KM of quercetin-stimulated ABCG2 ATPase activity / Change of vmax of quercetin-stimulated ABCG2 ATPase activity: Figs 5 and 6; for Type of inhibition of the quercetin-stimulated ATPase activity of ABCG2: modified Michaelis-Menten fit at different quercetin concentrations
# T2 sequence (Q9UNQ0 1-655): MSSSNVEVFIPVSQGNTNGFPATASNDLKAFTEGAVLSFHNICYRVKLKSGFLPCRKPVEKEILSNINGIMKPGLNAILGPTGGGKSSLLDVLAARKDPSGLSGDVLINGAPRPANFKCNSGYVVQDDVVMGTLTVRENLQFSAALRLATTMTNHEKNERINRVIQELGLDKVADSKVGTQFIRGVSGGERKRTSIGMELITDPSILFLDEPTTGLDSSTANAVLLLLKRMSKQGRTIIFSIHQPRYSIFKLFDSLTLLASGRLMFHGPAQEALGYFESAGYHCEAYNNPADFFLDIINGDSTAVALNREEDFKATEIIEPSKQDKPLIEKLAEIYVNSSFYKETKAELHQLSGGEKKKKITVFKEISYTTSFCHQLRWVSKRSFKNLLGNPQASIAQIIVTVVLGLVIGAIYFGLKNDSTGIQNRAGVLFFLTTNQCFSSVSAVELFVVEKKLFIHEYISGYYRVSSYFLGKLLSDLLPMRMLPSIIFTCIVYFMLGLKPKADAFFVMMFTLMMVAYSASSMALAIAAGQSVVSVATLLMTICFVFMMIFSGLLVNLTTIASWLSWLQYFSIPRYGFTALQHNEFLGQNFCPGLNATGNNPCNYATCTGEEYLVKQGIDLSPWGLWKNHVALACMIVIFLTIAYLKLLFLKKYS
# Experimental: For ATPase activity measurements we used membrane samples derived from Sf9 (Spodoptera frugiperda) insect ovarian cells expressing human Pgp or ABCG2. cDNAs of the transporters were cloned into recombinant baculovirus transfer vectors, the Sf9 insect ovarian cells were cultured, and infected with the baculoviruses as described in ref. [52]. Sf9 cells overexpressing human Pgp and ABCG2 were harvested and cell membranes were isolated. The protein concentration of the membrane samples were determined by the Lowry method. The ABCG2 expressing Sf9 membrane samples were loaded with cholesterol by cholesterol-methyl-beta-cyclodextrine complex in order to obtain high specific ATPase activity of the transporter. Membrane samples were stored at −80 °C. The transporter expression of the membrane samples (5 μg membrane protein/slot) was routinely checked by immunoblot using the G-1 mAb (for Pgp) or BXP-21 mAb (for ABCG2) and a goat anti-mouse HRP-conjugated IgG secondary antibody. Both primary and secondary antibodies were from Santa Cruz Biotechnology Inc. (CA, USA) and applied at 1:5,000 dilution.
# The vanadate-sensitive ATPase activity of Pgp and ABCG2 was determined by a colorimetric assay described in refs [32],[55]. Specific ATPase activity of the transporters was calculated from the amount of released inorganic phosphate. […]. The absorbance of the samples was measured at 700 nm using a BioTek Synergy HT plate reader (BioTek Instruments, Winooski, USA).
# The half-inhibitory doses (IC50) of retinoids were determined by fitting the dose-response relationships with a four parameter sigmoidal curve, where Amax and Amin are the ATPase activities measured at zero and at infinitely high inhibitor concentrations, respectively, n is the Hill coefficient and x is the concentration of the inhibitor:
# Upon studying the kinetics of inhibition of the substrate-stimulated ATPase activity by retinoids data points were fitted with a modified form of the Michaelis-Menten equation[56] which includes the Hill coefficient, n: […]
# v0 is the basal ATPase activity measured in the absence of the stimulatory substrate, while vmax is the maximal extent of ATPase stimulation and KM is the Michaelis constant (i.e. the substrate concentration at which the reaction rate is half of vmax).
# [3] = cited from earlier work
# [4] = biological target: T2, ABCG2; assay: Mitoxantrone accumulation test (ABCG2 transport activity) in MDCK ABCG2 cells; conditions: 20 min pre-treatment 37 °C, 5 μM mitoxantrone 40 min
# Experimental: (§3) Calcein-AM was applied to measure the transport activity of Pgp[51], while ABCG2 mediated transport was measured in mitoxantrone accumulation tests[18]. Cells were harvested and washed three times in PBS containing 7 mM glucose (gl-PBS). […] Dead cells were excluded from the analysis on the basis of propidium iodide (PI) staining.
# (§4) Flow cytometric analysis was carried out on a Becton Dickinson FACSAria III Cell Sorter (Becton Dickinson, Mountain View, CA, USA). Calcein was excited by the 488 nm line of a solid state laser and the emitted light was detected using a 502 nm dichroic mirror and a 530/30 nm band-pass filter. […] AlexaFluor647 and mitoxantrone signals were detected with a 633 nm excitation laser and a 660/20 nm band-pass filter.
# [5] = biological target: T1, Pgp; assay: Calcein accumulation test (Pgp transport activity) in NIH 3T3 MDR1 cells; conditions: 20 min pre-treatment 37 °C, 500 nM calcein-AM 20 min
# Experimental: as §3, §4
# [6] = biological target: T1, Pgp; assay: biochemical; conditions: IC50 values, Sf9 membranes, mean ± SEM, n=3
# Experimental: as §1, §2
# [7] = system: NIH 3T3 / NIH 3T3 MDR1 and MDCK / MDCK ABCG2 cells; assay: DPH steady-state fluorescence anisotropy (membrane fluidity); conditions: retinoids 100 μM; for Effect on DPH fluorescence anisotropy: cyclosporin 10 μM, Ko143 2 μM, 10 min 37 °C, all tested cell lines; for Effect on DPH anisotropy in transporter expressing compared to non-expressing cells: Pgp+ vs Pgp− NIH 3T3, ABCG2 expressing vs non-expressing MDCK
# [8] = system: Pgp- and ABCG2-negative NIH 3T3 and MDCK cells; assay: Calcein and mitoxantrone accumulation in transporter negative cells; assay type: cell-based, mouse / canine; conditions: NIH 3T3 (calcein) and MDCK (mitoxantrone), Supplementary Fig. S1, 50 µM
# Experimental: Supplementary Fig. S1: Effect of retinoid derivatives on the calcein (a) and
# mitoxantrone (c) accumulation and viability (b, d) of Pgp- and ABCG2-negative NIH
# 3T3 and MDCK cells. Cells were pre-treated with retinoids added at 50 µM concentration
# Cell viability was determined on the basis of propidium iodide exclusion.
# (1 picture or pasted object on this page, not shown here)
# [9] = cited from earlier work; for Plasma concentrations resulting from chemotherapy use: treatment of neuroblastoma or squamous cell carcinoma, ref [24][25][26]
# [10] = system: NIH 3T3 / NIH 3T3 MDR1 and MDCK / MDCK ABCG2 cells; assay: TMA-DPH steady-state fluorescence anisotropy (membrane fluidity); conditions: 100 μM; NIH 3T3 and NIH 3T3 MDR1 cells
# [11] = Pgp basal ATPase activity, 10 min pre-incubation 37 °C, 3 mM ATP/Mg2+ 25 min
# [12] = Pgp stimulated (verapamil-stimulated) ATPase activity, 40 μM verapamil
# [13] = 10 μM quercetin, read-out: IC50 values, ABCG2 stimulated (quercetin-stimulated) ATPase activity
# [14] = read-out: IC50 values, ABCG2 basal ATPase activity
SMILES,"IC50 values, Pgp stimulated (verapamil-stimulated) ATPase activity [1]","IC50 values, Pgp basal ATPase activity [1]","IC50 values, ABCG2 stimulated (quercetin-stimulated) ATPase activity ([2]; 10 μM quercetin)","IC50 values, ABCG2 basal ATPase activity [2]",Effect on mitoxantrone accumulation of ABCG2 expressing cells (ABCG2 transport activity) [4],Effect on calcein accumulation of Pgp expressing cells (Pgp transport activity) [5],Effect on DPH fluorescence anisotropy [7],other results
"CC1=C(/C=C/C(C)=C/C=C/C(C)=C/C(=O)O)C(C)(C)CCC1=O [All-trans-4-oxo-retinoic acid, all-trans-4-oxo-retinoic acid]",Weak inhibition,No effect,No effect,No effect,,,,
O=c1c(O)c(-c2ccc(O)c(O)c2)oc2cc(O)cc(O)c12 [quercetin],,,,,,,,"LogP (octanol-water partition coefficient, LogPow) ([3]; ref 2 (Rothwell et al., 2005)): 1.8; Stimulated ATPase activity of ABCG2 ([2]; 10 μM quercetin): 60–70 nmol Pi/ mg protein/min; Stimulation of ABCG2 ATPase activity ([2]; 10 μM quercetin, maximum stimulation): ~2 fold"
CCC(=O)OC/C=C(C)/C=C/C=C(C)/C=C/C1=C(C)CCCC1(C)C [Retinyl-propionate],No effect,No effect,No effect,No effect,none of them had any effect,none of them had any effect,,
CC1=C(/C=C/C(C)=C/C=C/C(C)=C\C(=O)O)C(C)(C)CCC1 [13-cis-retinoic acid],,,,,increased the cellular accumulation of the fluorescent transporter substrates in a concentration dependent manner,increased the cellular accumulation of the fluorescent transporter substrates in a concentration dependent manner,increased the DPH fluorescence anisotropy values significantly,"IC50 [6, 11]: 60.5 ± 11.4 µM; IC50 [6, 12]: 26.8 ± 2 µM; Effect on DPH anisotropy in transporter expressing compared to non-expressing cells [7]: similarly; Change of apparent KM of verapamil-stimulated Pgp ATPase activity [1]: did not induce statistically significant KM increase; Change of vmax of verapamil-stimulated Pgp ATPase activity [1]: decreased the vmax; Type of inhibition of the verapamil-stimulated ATPase activity of Pgp [1]: inhibits Pgp only non-competitively; Effect on substrate accumulation of transporter negative cells [8]: did not have any effect; Plasma concentrations resulting from chemotherapy use [9]: 10 to 20 µM; IC50 [2, 13]: 76.5 ± 2.3 µM; Change of apparent KM of quercetin-stimulated ABCG2 ATPase activity [2]: apparent increase of the KMvalues; Change of vmax of quercetin-stimulated ABCG2 ATPase activity [2]: decreased the vmax value; IC50 [2, 14]: 70.6 ± 9 µM; Type of inhibition of the quercetin-stimulated ATPase activity of ABCG2 [2]: mixed-type transporter inhibition"
CC1=C(/C=C/C(C)=C/C=C/C(C)=C/CO)C(C)(C)CCC1 [Retinol],,,,,increased the cellular accumulation of the fluorescent transporter substrates in a concentration dependent manner,increased the cellular accumulation of the fluorescent transporter substrates in a concentration dependent manner,increased the DPH fluorescence anisotropy values significantly,"IC50 [6, 11]: 23.5 ± 4 µM; IC50 [6, 12]: 27.9 ± 0.7 µM; Effect on DPH anisotropy in transporter expressing compared to non-expressing cells [7]: similarly; Change of apparent KM of verapamil-stimulated Pgp ATPase activity [1]: increased the KM; Change of vmax of verapamil-stimulated Pgp ATPase activity [1]: decreased the vmax; Type of inhibition of the verapamil-stimulated ATPase activity of Pgp [1]: mixed-type transporter inhibition; Effect on substrate accumulation of transporter negative cells [8]: did not have any effect; LogP (octanol-water partition coefficient, LogPow) ([3]; ref PubChem Compound Database (CID)): 5.7; Concentration present in the plasma (physiological) ([9]; ref [20]): 1–2 micromolar; IC50 [2, 13]: 95.2 ± 10.6 µM; Change of apparent KM of quercetin-stimulated ABCG2 ATPase activity [2]: increased the KM; Change of vmax of quercetin-stimulated ABCG2 ATPase activity [2]: decreased the vmax; IC50 [2, 14]: 31.6 ± 4.2 µM; Type of inhibition of the quercetin-stimulated ATPase activity of ABCG2 [2]: mixed-type transporter inhibition"
"CC1=C(/C=C/C(C)=C/C=C/C(C)=C/C(=O)O)C(C)(C)CCC1 [All-trans-retinoic-acid, all-trans retinoic acid]",No effect,No effect,No effect,No effect,none of them had any effect,none of them had any effect,did not have any effect,Plasma concentrations resulting from chemotherapy use [9]: 10 to 20 µM
"CCCCCCCCCCCCCCCC(=O)OC/C=C(C)/C=C/C=C(C)/C=C/C1=C(C)CCCC1(C)C [Retiny-palmitate, Retinyl-palmitate]",No effect,No effect,No effect,No effect,none of them had any effect,none of them had any effect,,"Effect on TMA-DPH fluorescence anisotropy, NIH 3T3 cell pair [10]: decreased the TMA-DPH anisotropies significantly"
CC1=C(/C=C/C(C)=C\C=C\C(C)=C\C(=O)O)C(C)(C)CCC1 [9-cis-retinoic acid],No effect,No effect,No effect,No effect,none of them had any effect,none of them had any effect,did not have any effect,
